Measured values: US5882881A, “Inhibition of cyst formation by cytoskeletal specific drugs” (priority 1998, dated 1999)
“Also recorded” adds a separate entry of the source. Like-named read-outs stand apart in the source and are kept apart here.

Tests used:
Murine CPK Cells [1] = experiment: In vitro cyst formation and cyst size in suspension culture of murine CPK cells; format: cell-based, mouse; settings: for Cyst Size: mean ± SD of twenty cysts, concentrations as in Table II, control 71 ± 22; for cyst formation (in words): 24 h suspension culture, ouabain 0.5 mM, also 1 mM, b155 taxol 25 μM, colchicine 10 μM, vinblastine 1 μM, cytochalasins 10 μM, model species not given
Protocol: At 10, 21 and 28 days after birth, mice having congenital polycystic kidney disease (CPK) and their phenotypically normal littermates were sacrificed by cervical dislocation. Kidneys were harvested aseptically and washed with DMEM/F12 (Sigma Chemical Co., St. Louis, Mo.) in a 1:1 mix. Each decapsulated kidney was chopped into cubes (1 mm) and incubated in 5 ml of collagenase solution composed of 1 mg/ml collagenase type IV (Worthington Biochemical Corporation, Freehold, N.J.), 1 mg/ml egg white trypsin inhibitor (Worthington) in 1:1 DMEM/F12.
The top 12 mls, which contained both single cells and aggregates of up to 10 cells, as assessed by inverted phase-ontrast microscopy, were placed in 2 ml aliquots in the wells of plastic culture plates (Corning, N.Y.) precoated with 1% agarose in DMEM:F12 (2 ml in each well of a 6-well plate; 1 ml in each well of a 24-well plate). Cell samples were digested with further incubation for 10 minutes in 0.05% trypsin and 0.53 mM EDTA (Gibco, BRL Gaithesburg, Md.) at 37° C. All cultures were plated at a final density of 1-3×10^4 cell, per well. For growth studies of monolayer cells, identical preparations were grown on the plastic surface of the culture plates. Both the monolayers and the cell suspensions were incubated at 37° C. in a moisture saturated incubator in 5% CO2 and air.
(§1) I used the in vitro cyst formation system of the present invention to analyze compounds that affect the process of cyst formation. To determine the therapeutic effectiveness of an agent, cyst-forming cells are suspended in a medium to which the agent has been added. These cells are then cultured on a solid phase without formation of a layer of cells on the surface, such as in the assay system described in Example 1. The extent to which the cells actually form cysts can be detected and compared to the extent of cyst formation expected if no agent were added. If the amount of cyst formation is lower than expected, then the agent is a good candidate for therapeutic intervention of cystic diseases.
(§2) The effects of various metabolic inhibitors on cyst formation were studied in cultures derived from day 21 postnatal CPK mice. […] Taxol (25 μM), a microtubule specific inhibitor, was from Calbiochem (La Jolla, Calif.). All other chemicals were obtained from Sigma Chemical Co. Cytosine arabinoside was added at the final concentration of 20 μg/ml to inhibit DNA synthesis; α-amanitin at 100 ng/ml to inhibit RNA synthesis; cycloheximide at 40 μg/ml to inhibit protein synthesis; amiloride at 1 mM to inhibit the renal epithelial Na^+ -H^+ exchange; ouabain at 0.5 mM to inhibit Na^+ -K^+ -ATPase; brefeldin-A at 10 μg/ml to inhibit transport of surface proteins; griseofulvin at 350 μM to inhibit microtubule function; colchicine at 10 μM to inhibit microtubule polymerization; and cytochalasin-B and cytochalasin-D at 10 μM to depolymerize actin filaments.
(§3) In the presence of these metabolic inhibitors in vitro, cyst formation was noted to be either present or absent; if present, the diameters of 20 cysts from a 0.2 ml aliquot were measured. In the same samples, ^3 H-dThd incorporation was also measured as described above. […] After each wash, cell clusters were collected by centrifuging at 200×g for 1 minute and the supernatant discarded. Washed cell clusters were resuspended in the original volume of growth medium without inhibitors, placed in agarose coated wells and incubated at 37° C. in a moisture saturated incubator in 5% CO2 and air.
(§4) In this table, the mean cyst size is reported as ±SD with a measurement of twenty cysts. The ^3 H-dThd incorporation is reported as ±SD using measurements of three wells. The * indicates […] versus control. […] The entries listed as "NA" in the table indicate data that is not available.

Murine CPK Cells [2] = experiment: 3H-thymidine incorporation (DNA synthesis) in CPK cell suspension culture; format: cell-based, mouse; settings: for ^3 H-dThd Incorporation: ± SD, three wells, concentrations as in Table II, control 100 ± 11, 1440 min; for ^3 H-dThd incorporation / DNA synthesis (in words): CPK cultures
Protocol: Growth studies were performed on kidney cells derived from day 10, 21 and 28 postnatal CPK mice and their normal littermates. Immediately after cells were placed in suspension or monolayer culture, 3 μCi of ^3 H-thymidine (^3 H-dThd, specific activity 45 Ci/mmol, Amersham, Ill.) was placed in each well of the culture plate. DNA synthesis was assessed by incorporation of ^3 H-dThd over the 24 hours of culture, and trichloroacetic acid-insoluble. radioactivity was expressed as cpm/μg protein. Protein was assayed with the BCA reagent as described by the manufacturer (Pierce, Rockford, Ill.). At 24 hours of culture, an aliquot (0.2 ml) of the suspension was removed and the number of cysts counted using an inverted microscope. The number of cysts was expressed as a ratio factored for the total number of cells in the suspension at 24 hours of culture. Cyst diameter was measured at 100× using an eyepiece micrometer.
as §2, §3, §4

human ADPKD cells = experiment: In vitro cyst formation in human ADPKD cells; format: cell-based
Excerpt: I have substituted human ADPKD cells for the murine CPK cells of Example 1 and produced similar results. Other cyst-forming cells are believed to also form suitable results with only minor deviations from the conditions set forth in Example 1.
Cell suspensions were separated from debris by sedimentation at unit gravity and decantation. After washing once with DMEM/F12 medium, cells were suspended in DMEM/F12 supplemented with 1.2 gm/l sodium bicarbonate, 1× insulin, transferrin and selenium (Sigma # 11184), 1% lipids supplement (Sigma # L4646) and 1× antibiotic/antimycotic (Sigma # A7292) at a density of 5×10^4 cells per ml. Two mls of the cell suspension were aliquoted into each well of a six-well plastic cell culture plates that had been precoated with 2 mls of 1% low melting point agarose in DMEM/F12 and incubated at 37° C. in a humidified atmosphere of 5% CO2 in air.
as §1

Murine CPK Cells [3] = experiment: In vitro cyst formation and cyst size in suspension culture of murine CPK cells; format: cell-based, mouse; settings: day 21, 24 h, final concentration per Table II (cytosine arabinoside 20 μg/ml, α-amanitin 100 ng/ml, cycloheximide 49 μg/ml, ouabain 1 mM, amiloride 1 mM, brefeldin-A 10 μg/ml, griseofulvin 350 μM, colchicine 10 μM, vinblastine 1 μM, nocodazole 30 μM, taxol 25 μM, cytochalasins 10 μM)
homozygous cpk mice = experiment: Survival of cpk mice on weekly intraperitoneal treatment (Example 8, FIG. 2); format: in vivo, mouse
Excerpt: Untreated and methotrexate (MTX) treated polycystic cpk mice all died before 30 days of age. Most polycystic cpk mice treated with weekly taxol survive more than 60 days. The dotted line starting at day 120 indicates the number and age of apparently healthy taxol treated polycystic mice that were sacrificed for histology studies. Pairs of mice were sacrificed at 120 days, 182 days and 210 days of age.
In order to determine whether taxol prevents cyst formation by inhibiting cell division, another drug known to have anti-mitotic activity, methotrexate, was tested for its ability to treat homozygous cpk mice. Six cpk mice were injected intraperitoneally with 15 μl of methotrexate solution (1.1 mg/ml in water) 10-12 days after birth and once every week thereafter. The methotrexate-injected mice survived until between 18 and 27 days after birth, with only one mouse living longer than 28 days. […] Therefore, the anti-mitotic activity of taxol cannot explain its ability to treat CPK mice having a polycystic-type kidney disease. Rather, the results from in vitro tests indicate that agents which interfere with the function of the cytoskeleton, or which inhibit the delivery of membrane proteins are useful in treating cystic diseases such as Polycystic Kidney Disease.
Eleven homozygous cpk mice, raised and identified as in Example 6 were treated with 15 μl of 10 mg/ml taxol in DMSO through intraperitoneal injection beginning 11-14 days after birth. Following the first treatment, the mice were administered with the same treatment once every week thereafter. As controls, 6 cpk mice were treated with 15 μl intraperitoneal injections of DMSO beginning 10-12 days after birth and then once every week thereafter.

[4] = human ADPKD cells, cytosine arabinoside 20 μg/ml, α-amanitin 100 ng/ml, cycloheximide 40 μg/ml, amiloride 1 mM, ouabain 0.5 mM, taxol 25 μM, colchicine 10 μM, vinblastine 1 μM, cytochalasins 10 μM

Row | Compound | Cyst Size (Murine CPK Cells [1]) | cyst formation (in words) (Murine CPK Cells [1]; murine CPK cells) | ^3 H-dThd Incorporation (Murine CPK Cells [2]) | cyst formation (in words) (human ADPKD cells; [4]) | Cyst Formation (+/-) (Murine CPK Cells [3]) | also measured
1 | C=C1C(C)C2C(Cc3ccccc3)NC(=O)C23C(OC(C)=O)/C=C/C(C)(O)C(=O)C(C)C/C=C/C3C1O (stereo not shown) [Cytochalasin-D] | 0 μm | effectively inhibited cyst formation in both models | 97 ± 2 % control | effectively inhibited cyst formation in both models | - | 
2 | C[C@H]1CCC/C=C/[C@@H]2C[C@H](O)C[C@H]2[C@H](O)/C=C/C(=O)O1 [Brefeldin-A] | 0 μm | completely inhibited cyst formation |  |  | - | 
3 | α-amanitin | 65 ± 27 μm |  | 71 ± 10 % control | Neither cytosine arabinoside (20 μg/ml), α-amanitin (100 ng/ml) nor cycloheximide (40 μg/ml) inhibited cyst formation |  | Cyst Formation (+/-) (Murine CPK Cells [1]; murine CPK cells, day 21, 24 h, final concentration per Table II (cytosine arabinoside 20 μg/ml, α-amanitin 100 ng/ml, cycloheximide 49 μg/ml, ouabain 1 mM, amiloride 1 mM, brefeldin-A 10 μg/ml, griseofulvin 350 μM, colchicine 10 μM, vinblastine 1 μM, nocodazole 30 μM, taxol 25 μM, cytochalasins 10 μM)): +; ^3 H-dThd incorporation / DNA synthesis (in words) (Murine CPK Cells [2]): small, but significant, decrease in ^3 H-dThd incorporation
4 | N=C(N)NC(=O)c1nc(Cl)c(N)nc1N [Amiloride] | 0 μm |  | 72 ± 25 % control | completely block cyst formation | - | cyst formation (in words) (human ADPKD cells; human ADPKD cells, cytosine arabinoside 20 μg/ml, α-amanitin 100 ng/ml, cycloheximide 40 μg/ml, amiloride 1 mM, ouabain 0.5 mM, taxol 25 μM, colchicine 10 μM, vinblastine 1 μM, cytochalasins 10 μM, listed as amiloride): cyst formation can be blocked; time to lumen appearance after removing the inhibitor (human ADPKD cells; human model): twenty-four; reversibility of inhibition of cyst formation (human ADPKD cells; human model, inhibitor removed): reversible
5 | C=C1C(C)C2C(Cc3ccccc3)NC(=O)C23OC(=O)/C=C/C(O)CCCC(C)C/C=C/C3C1O (stereo not shown) [Cytochalasin-B] | 0 μm | effectively inhibited cyst formation in both models | 96 ± 5 % control | effectively inhibited cyst formation in both models | - | 
6 | CC[C@]1(O)C[C@@H]2CN(CCc3c([nH]c4ccccc34)[C@@](C(=O)OC)(c3cc4c(cc3OC)N(C)[C@H]3[C@@](O)(C(=O)OC)[C@H](OC(C)=O)[C@]5(CC)C=CCN6CC[C@]43[C@@H]65)C2)C1 [Vinblastine] | 0 μm | reversibly inhibited in vitro cyst formation in both models | 93 ± 9 % control | reversibly inhibited in vitro cyst formation in both models | - | 
7 | CN(Cc1cnc2nc(N)nc(N)c2n1)c1ccc(C(=O)N[C@@H](CCC(=O)O)C(=O)O)cc1 [Methotrexate] |  |  |  |  |  | survival, age (homozygous cpk mice; weekly i.p. treatment, DMSO mice survived 24-28 days, FIG. 2: all methotrexate, most taxol mice, b191: remaining six taxol mice > 120, two died < 30): < 30 days; survival (in words) (homozygous cpk mice; weekly i.p., versus untreated or DMSO): did not appear to survive substantially longer than untreated controls
8 | COC(=O)Nc1nc2ccc(C(=O)c3cccs3)cc2[nH]1 [Nocodazole] | 0 μm | reversibly inhibited | 87 ± 16 % control | reversibly inhibited | - | 
9 | C[C@@H]1C[C@@H]([C@H](O)CC2CC(=O)NC(=O)C2)C(=O)[C@@H](C)C1 [Cycloheximide] | 68 ± 17 μm |  | 88 ± 20 % control |  |  | Cyst Formation (+/-) (Murine CPK Cells [1]): +; cyst formation (in words) (human ADPKD cells): Neither cytosine arabinoside (20 μg/ml), α-amanitin (100 ng/ml) nor cycloheximide (40 μg/ml) inhibited cyst formation
10 | COc1cc2c(c(OC)c1OC)-c1ccc(OC)c(=O)cc1[C@@H](NC(C)=O)CC2 [Colchicine] |  |  | 97 ± 12 % control |  |  | 
11 | Nc1ccn([C@@H]2O[C@H](CO)[C@@H](O)[C@@H]2O)c(=O)n1 [Cytosine arabinoside, cytosine arabinoside] | 70 ± 21 μm | cyst formation was not affected; also recorded: cyst formation was not impaired after 24 hours of culture | 2 ± 2 % control | Neither cytosine arabinoside (20 μg/ml), α-amanitin (100 ng/ml) nor cycloheximide (40 μg/ml) inhibited cyst formation; also recorded: no effect on in vitro cyst formation is observed | + | ^3 H-dThd incorporation / DNA synthesis (in words) (Murine CPK Cells [2]): profound decrease in ^3 H-dThd incorporation; also recorded: effectively abolished ^3 H-dThd incorporation; ^3 H-dThd Incorporation (Murine CPK Cells [2]; listed as cytosine arabinoside): 2±2 % control
